Measurements as given in ChEMBL document CHEMBL5523686, “Medicinal chemistry perspectives on the development of piperazine-containing HIV-1 inhibitors” (Bioorg Med Chem, 2024).
In brackets after ≈: the same amount, converted by molar mass.

What was measured:
[1] = tested on: Human immunodeficiency virus 1; experiment: Antiviral activity against HIV-1 IIIB infected in human MT4 cells assessed as inhibition of viral replication measured after 5 days by MTT spectrophotometric assay; type: functional, organism-based; conditions: Human immunodeficiency virus 1, IIIB, MT4, 120 h
[2] = tested on: Human immunodeficiency virus 2; experiment: Antiviral activity against HIV-2 ROD infected in human MT4 cells assessed as inhibition of viral replication measured after 5 days by MTT spectrophotometric assay; type: functional, organism-based; conditions: Human immunodeficiency virus 2, ROD, MT4, 120 h
[3] = tested on: Human immunodeficiency virus 1; experiment: Antiviral activity against HIV-1 3B infected in human MT4 cells assessed as inhibition of viral replication incubated for 5 days by MTT assay; type: functional, organism-based; conditions: Human immunodeficiency virus 1, 3B, MT4, 120 h
[4] = tested on: Human immunodeficiency virus 1; experiment: Antiviral activity against HIV1 IIIB infected in human MT4 cells assessed as inhibition of viral replication incubated for 3 to 7 days by MTT analysis; type: functional, organism-based; conditions: Human immunodeficiency virus 1, IIIB
[5] = tested on: Human immunodeficiency virus 1; experiment: Antiviral activity against HIV1 Env pseudotyped virus infected in human HEK293T cells assessed as inhibition of viral growth incubated for 72 hrs by luciferase assay; type: functional, organism-based; conditions: Human immunodeficiency virus 1, HEK-293T
[6] = tested on: Human immunodeficiency virus 1; experiment: Antiviral activity against wild type HIV1 IIIB infected in human MT4 cells assessed as inhibition of viral replication incubated for 3 to 5 days by MTT analysis; type: functional, organism-based; conditions: Human immunodeficiency virus 1, IIIB
[7] = Aqueous solubility of compound at pH 7; type: physicochemical

Which IC50 [1] does the source give for O=C1Nc2ccc(Cl)cc2[C@@](C#CC2CC2)(C(F)(F)F)N1 here?
The IC50 was 2.22 µg/mL (≈ 7.05 µM).

What about the IC50 [2] of the same compound?
The IC50 was 2.22 µg/mL (≈ 7.05 µM).

What about the IC50 [3] of the same compound?
Its IC50 is 813 nM.

With Cn1c(N2CCNCC2)c(/N=N/c2ccc(Cl)cc2)c(N)nc1=O as the compound, how does the EC50 [4] read?
The EC50 was > 3030 nM.

With COc1cnc(-n2cnc(C)n2)c2[nH]cc(C(=O)C(=O)N3CC(C)N(C(=O)c4ccccc4)C(C)C3)c12 (stereo not drawn) as the compound, how does the IC50 [5] read?
Its IC50 is 0.14 nM.

With Cc1cc(C#N)cc(C)c1Oc1ccnc(Nc2ccc(N3CCN(S(C)(=O)=O)CC3)nc2)n1 as the compound, how does the EC50 [6] read?
The EC50 was 2 nM.

For Cc1cc(C#N)cc(C)c1Oc1ccnc(Nc2ccc(N3CCN(S(C)(=O)=O)CC3)c(C#N)c2)n1, which EC50 [6] is on record?
The EC50 was 1 nM.

And the solubility [7]?
The solubility was 13.5 µg/mL (≈ 26.7 µM).
